# Assays:
# [1] = system: Guinea Pigs; test: Test for skin sensitization in guinea pigs (adjuvant and patch test method)
# Description: The dorsal area of male Hartley guinea pigs (n=5) at the age of 7 weeks was shaved with an electric shaver, and on the following day, primary sensitization was initiated. In the primary sensitization, emulsified complete Freund's adjuvant was intradermally administered at a dose of 0.1 ml only at the initial time, and an adhesive plaster for a patch test spread with 0.1 g of an ointment containing a test compound at 1%, was applied in an occluded state to the site where the adjuvant was intradermally administered. As a base of the ointment, petrolatum containing sorbitan sesquioleate (a surfactant) at 1% was used. At 24 hours after the adhesive plaster for a patch test was applied, the adhesive plaster was removed, and the application site was cleaned by wiping. The procedure of this primary sensitization was performed once daily and continued for a total of 3 days. On 7 days after the initial application of the primary sensitization, secondary sensitization was performed. The site subjected to the primary sensitization was shaved, and an ointment containing sodium lauryl sulfate at 10% was applied thereto in an open state. After 24 hours, the application site was cleaned by wiping, and a lint cloth spread with 0.2 g of the ointment containing a test compound at 1% was applied, thereto in an occluded state. At 48 hours after the lint cloth was applied, the cloth was removed, and the application site was cleaned by wiping. Challenge was performed on 13 days after initiation of the secondary sensitization. The dorsal area and flank area were shaved, and 0.01 g of the ointment containing a test compound at 1% was applied to the challenge site and left for about 24 hours. At about 24 hours and 48 hours after the challenge, observation of the skin surface was performed, and the presence or absence of sensitizing was determined. The determination was carried out by scoring according to the evaluation criteria (see Table 1) of the Draize method (1959).
# In this connection, as a positive control, 1-chloro-2,4-dinitrobenzene (DNCB) (sensitization: 1%, challenge: 0.1%) was used. As the test compound, the compounds of Example 58 and Example 248 were used. As a comparative control, 4-[((1S,2R)-2-{[amino(imino)methyl]amino}cyclohexyl)amino]-N-isobutyl-6-methylquinazoline-2-carboxamide dihydrochloride described in Example 383 in Patent document 1 (sensitization: 0.1%, induction: 1%) was used.
# [2] = system: Mice; test: Acute toxicity test in mice; format: in vivo, mouse; details: intravenous, observed for 2 hours
# Text: Male ICR mice at the age of 4 to 6 weeks were used.
# [3] = system: Rabbits; details: female, Kbs: JW, rabbit, in vivo, 24 h
# Text: Then, erythema and edema formation at the application site was observed. […] The mean value of the sum of erythema and edema scores was used as a simple primary skin irritation index. […]
# [4] = system: Mice; test: Effect on scratching behavior induced by serotonin application in mice; format: in vivo, mouse; details: counted for 15 minutes
# Description: To the cervical and dorsal area of male ICR mice (n=3 to 6) at the age of 4 to 6 weeks, 100 μl of a solution obtained by dissolving serotonin hydrochloride in ethanol at 0.1% (hereinafter referred to as serotonin) was applied, and the number of scratching behavior at the application site with the hind legs occurring immediately after the application was counted for 15 minutes after administration with a counter. Administration of a test compound was carried out by skin application, intravenous administration or oral administration. In the case of skin application, the test compound that was dissolved in ethanol was applied in an amount of 100 μl concurrently with serotonin. In the case of intravenous administration, the test compound that was dissolved in physiological saline was administered at a dose of 10 ml/kg at 5 minutes prior to the serotonin application. In the case of oral administration, the test compound that was dissolved in distilled water was administered at a dose of 10 ml/kg at 20 minutes prior to the serotonin application. The control group of each administration route was given the respective solvent, and the values of scratching behavior were compared between the control group and the test compound group.
# The results obtained by skin application of the test compound are shown in Table 3; the results obtained by intravenous administration of the test compound are shown in Table 4; and the results obtained by oral administration of the test compound are shown in Table 5.
# [5] = positive control, sensitization: 1%, challenge: 0.1%, n=5
# [6] = skin application, concentration 0.1% in ethanol, concurrently with serotonin
structure (smiles),measurement,setting,value
"O=[N+]([O-])c1ccc(Cl)c([N+](=O)[O-])c1 [DNCB, 1-chloro-2,4-dinitrobenzene]","edema (Draize score, cases)",[1]; [5],"score 1 in 3/5 cases, and score 0 in 2/5 cases"
same,"erythema (Draize score, cases)",[1]; [5],"score 3 in 3/5 cases, score 2 in 1/5 cases, and score 1 in 1/5 cases"
"CON=C(N)N[C@@H]1CCCC[C@@H]1Nc1nc(C(=O)NCC(C)C)nc2ccc(C)cc12.Cl.Cl [Example 211, 4-[((1S,2R)-2-{[amino(methoxyimino)methyl]amino}cyclohexyl)amino]-N-isobutyl-6-methylquinazolin-2-carboxamide dihydrochloride]",Change in behavior,[2]; 10 mg/kg,No obvious change
same,Simple primary skin irritation index,[3],1.5
same,Average number of scratching behavior,[4]; [6],73.0
"COCCCNC(=O)c1nc(N[C@H]2CCCC[C@H]2NC(N)=NOC)c2cc(C)ccc2n1.Cl.Cl [Example 239, 4-[((1S,2R)-2-{[amino(methoxyimino)methyl]amino}cyclohexyl)amino]-N-(3-methoxypropyl)-6-methylquinazolin-2-carboxamide dihydrochloride]",Change in behavior,[2]; 10 mg/kg,No obvious change
same,Simple primary skin irritation index,[3],1.0
same,Average number of scratching behavior,"[4]; oral administration, dose 30 mg/kg, 20 minutes prior to serotonin",88.6
same,Average number of scratching behavior,[4]; [6],55.8
"COCCNC(=O)c1nc(N[C@H]2CCCC[C@H]2NC(N)=NOC)c2cc(C)ccc2n1.Cl.Cl [Example 208, 4-[((1S,2R)-2-{[amino(methoxyimino)methyl]amino}cyclohexyl)amino]-N-(2-methoxyethyl)-6-methylquinazolin-2-carboxamide dihydrochloride]",Change in behavior,[2]; 20 mg/kg,No obvious change
same,Simple primary skin irritation index,[3],0.2
same,Average number of scratching behavior,"[4]; intravenous administration, dose 3 mg/kg, 5 minutes prior to serotonin",53.8
same,Average number of scratching behavior,[4]; [6],81.0
"Cc1ccc2nc(C(=O)NCC(C)C)nc(N[C@H]3CCCC[C@H]3NC(=N)N)c2c1.Cl.Cl [Comparative control A, 4-[((1S,2R)-2-{[amino(imino)methyl]amino}cyclohexyl)amino]-N-isobutyl-6-methylquinazoline-2-carboxamide dihydrochloride]","edema (Draize score, cases)","[1]; guinea pig, in vivo",edema was not observed in all the cases
same,"erythema (Draize score, cases)","[1]; male, Hartley, guinea pig, in vivo",well-defined erythema (score 2) was observed in 2/5 cases
same,Simple primary skin irritation index,[3],1.8

# From US8835446B2, “Quinazoline derivatives and pharmaceutical compositions thereof” (Nippon Shinyaku Co., Ltd., priority 2005, dated 2014)
